Literature values, collected in paper PMC5225183, “Fingerprinting of neurotoxic compounds using a mouse embryonic stem cell dual luminescence reporter assay” (Archives of Toxicology, 2016).

Test system: Thy1-GFP transgenic rats
Parameters: method as in Sun et al. [2012]
Details: ref Sun et al. [2012]; cited from earlier work

COC1=C2C[C@@H](C)C[C@H](OC)[C@H](O)[C@@H](C)/C=C(\C)[C@H](OC(N)=O)[C@@H](OC)/C=C\C=C(/C)C(=O)NC(=CC1=O)C2=O [Geldanamycin]
dose affecting nerve recovery / neurodifferentiation: 0.2 mg/kg/day
